In US20180360855A1, “THE FORMULATION COMPRISING PHOSPHOMYCINE AND ASCORBIC ACID FOR THE TREATMENT OF BACTERIAL URINARY SYSTEM INFECTIONS” (priority 2015, published 2018):

Columns and labels:
[1] = pH of solutions of Phosphomycine Trometamol with and without ascorbic acid in water; type: physicochemical
[2] = test system: susceptible bacteria; conditions: cited from earlier work

SMILES: C[C@@H]1O[C@@H]1P(=O)(O)O [Phosphomycine Trometamol, Phosphomycine trometamol]
- pH in 50 ml water ([1]; 5.631 g Phosphomycine Trometamol (+ 1.0 g ascorbic acid) in 50 ml water): 3.608
- pH in 100 ml water ([1]; 5.631 g Phosphomycine Trometamol (+ 1.0 g ascorbic acid) in 100 ml water): 3.743
- pH in 150 ml water ([1]; 5.631 g Phosphomycine Trometamol (+ 1.0 g ascorbic acid) in 150 ml water): 3.824

SMILES: C[C@@H]1O[C@@H]1P(=O)(O)O [Phosphomycine]
- efficiency in vitro depending on environmental conditions ([2]; in the presence of Alkali pH, glycose, phosphate, and sodium chloride): reduced
- time in which efficiency on susceptible bacteria is shown ([2]; in vitro studies): 30 min
